This note sets out measurements from ChEMBL document CHEMBL1147276, “Novel Acetylenic Acids from the Root Bark of Paramacrolobium caeruleum: Inhibitors of 3-Hydroxy-3-methyl-glutaryl Coenzyme A Reductase” (J Nat Prod, 1989).

For the assay, the target named is T1, 3-hydroxy-3-methylglutaryl-coenzyme A reductase (Homo sapiens, UniProt P04035).
T1 sequence (P04035 whole entry): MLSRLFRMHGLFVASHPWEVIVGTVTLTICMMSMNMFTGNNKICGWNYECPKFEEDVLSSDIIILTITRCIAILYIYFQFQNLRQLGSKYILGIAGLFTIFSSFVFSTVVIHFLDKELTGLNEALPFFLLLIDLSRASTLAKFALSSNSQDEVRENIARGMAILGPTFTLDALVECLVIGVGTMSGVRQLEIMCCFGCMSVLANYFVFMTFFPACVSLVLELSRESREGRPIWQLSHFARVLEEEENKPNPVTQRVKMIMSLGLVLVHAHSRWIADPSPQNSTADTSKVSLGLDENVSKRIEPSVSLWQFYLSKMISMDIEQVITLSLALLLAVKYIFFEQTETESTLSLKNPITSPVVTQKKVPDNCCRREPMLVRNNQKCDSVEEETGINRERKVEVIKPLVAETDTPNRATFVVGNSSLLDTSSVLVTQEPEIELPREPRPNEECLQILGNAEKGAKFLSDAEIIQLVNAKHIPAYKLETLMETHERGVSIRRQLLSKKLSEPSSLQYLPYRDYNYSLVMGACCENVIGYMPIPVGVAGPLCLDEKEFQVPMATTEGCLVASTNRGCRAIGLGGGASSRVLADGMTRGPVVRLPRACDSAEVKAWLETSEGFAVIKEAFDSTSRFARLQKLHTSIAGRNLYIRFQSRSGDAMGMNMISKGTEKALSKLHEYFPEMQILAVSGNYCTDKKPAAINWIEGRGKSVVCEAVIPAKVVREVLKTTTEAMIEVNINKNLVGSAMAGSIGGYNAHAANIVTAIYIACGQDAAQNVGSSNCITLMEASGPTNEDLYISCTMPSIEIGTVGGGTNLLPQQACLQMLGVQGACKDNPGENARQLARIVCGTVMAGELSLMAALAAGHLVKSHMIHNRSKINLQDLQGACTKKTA
The assay is described as follows: Inhibition of human HMGCoA reductase.

Usually IC50 stands for the concentration at which inhibition is half-maximal. With `CCCCCCCCC#CC#CC(O)CCCCC(=O)O` (centres undefined), the IC50 (read-out: IC50) is 7 µM. In the case of `CCCCCCCCC#CC#CC1OC1CCCC(=O)O` (centres undefined), the IC50 (read-out: IC50) is 5 µM.

With `CCCCCCCCC#CC#C/C=C/CCCC(=O)O`, the IC50 (read-out: IC50) worked out at 0.5 µM.

Consider `CCCCCCCCC#CC#C/C=C\CCCC(=O)O`, for which, for the setting “read-out: IC50”, the IC50 turned out to be 1.5 µM. On to `CCCCCCCC/C=C\CCCCCCCC(=O)O` [OLEIC ACID], for which the IC50 entry is reported as “Not Active”. On the same count and under the same terms, to `CCCCCCCCCCCCCCCCCC(=O)O` [STEARIC ACID] belongs “Not Active”. Take `CCCCCCCCC#CC#CCCCCCC(=O)O`: the IC50 (read-out: IC50) came to 5 µM.

In the case of `CCCCCCCCC#CCCCCCCCC(=O)O`, the IC50 (read-out: IC50) was 5 µM. Same read-out and setting: the value for `CCCCC#CC#CCCCCCC(=O)O` was 3 µM.
